{"source": "PubChem BioAssay (NCI)", "experiment_in_all_cases": "DTP human tumour cell line panel, 384-well format", "key": {"M14 melanoma": {"test_system": "M14 melanoma"}, "A549 NSCLC": {"test_system": "A549 NSCLC"}, "OVCAR-5 ovarian": {"test_system": "OVCAR-5 ovarian"}, "HCT-116 colon": {"test_system": "HCT-116 colon"}, "SR leukemia": {"test_system": "SR leukemia"}, "786-0 renal": {"test_system": "786-0 renal"}, "EKVX NSCLC": {"test_system": "EKVX NSCLC"}, "MDA-MB-231 breast": {"test_system": "MDA-MB-231 breast"}, "MDA-MB-468 breast": {"test_system": "MDA-MB-468 breast"}, "MCF7 breast": {"test_system": "MCF7 breast"}, "MOLT-4 leukemia": {"test_system": "MOLT-4 leukemia"}, "UACC-62 melanoma": {"test_system": "UACC-62 melanoma"}, "KM12 colon": {"test_system": "KM12 colon"}, "HT29 colon": {"test_system": "HT29 colon"}, "SK-MEL-2 melanoma": {"test_system": "SK-MEL-2 melanoma"}, "U251 glioblastoma": {"test_system": "U251 glioblastoma"}, "LOX IMVI melanoma": {"test_system": "LOX IMVI melanoma"}, "HOP-92 NSCLC": {"test_system": "HOP-92 NSCLC"}, "HCC-2998 colon": {"test_system": "HCC-2998 colon"}, "RXF 393 renal": {"test_system": "RXF 393 renal"}, "HCT-15 colon": {"test_system": "HCT-15 colon"}, "T-47D breast": {"test_system": "T-47D breast"}, "SW-620 colon": {"test_system": "SW-620 colon"}, "DU-145 prostate": {"test_system": "DU-145 prostate"}, "HOP-62 NSCLC": {"test_system": "HOP-62 NSCLC"}, "UO-31 renal": {"test_system": "UO-31 renal"}, "A498 renal": {"test_system": "A498 renal"}, "PC-3 prostate": {"test_system": "PC-3 prostate"}, "IGROV1 ovarian": {"test_system": "IGROV1 ovarian"}, "NCI/ADR-RES ovarian": {"test_system": "NCI/ADR-RES ovarian"}, "NCI-H23 lung": {"test_system": "NCI-H23 lung"}, "MDA-MB-435 melanoma": {"test_system": "MDA-MB-435 melanoma"}, "SK-MEL-5 melanoma": {"test_system": "SK-MEL-5 melanoma"}, "TK-10 renal": {"test_system": "TK-10 renal"}, "BT-549 breast": {"test_system": "BT-549 breast"}, "MALME-3M melanoma": {"test_system": "MALME-3M melanoma"}, "RPMI-8226 leukemia": {"test_system": "RPMI-8226 leukemia"}, "K-562 leukemia": {"test_system": "K-562 leukemia"}, "OVCAR-3 ovarian": {"test_system": "OVCAR-3 ovarian"}, "SNB-19 CNS": {"test_system": "SNB-19 CNS"}, "CAKI-1 renal": {"test_system": "CAKI-1 renal"}, "NCI-H460 NSCLC": {"test_system": "NCI-H460 NSCLC"}, "OVCAR-4 ovarian": {"test_system": "OVCAR-4 ovarian"}, "OVCAR-8 ovarian": {"test_system": "OVCAR-8 ovarian"}, "ACHN renal": {"test_system": "ACHN renal"}, "HS 578T breast": {"test_system": "HS 578T breast"}, "CCRF-CEM leukemia": {"test_system": "CCRF-CEM leukemia"}, "SN12C renal": {"test_system": "SN12C renal"}}, "note": "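GI50 = concentration required for 50% inhibition of growth. At the TGI there is no net growth.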"}
{"molecule": "CN1CC[C@@H](c2c(O)cc(O)c3c(=O)cc(-c4ccc(C(F)(F)F)cc4Cl)oc23)[C@@H]1CO", "values": [{"measurement": "GI50", "setting": "M14 melanoma", "result": 17, "unit": "µM"}, {"measurement": "TGI", "setting": "M14 melanoma", "result": 30.8, "unit": "µM"}, {"measurement": "GI50", "setting": "A549 NSCLC", "result": 16.7, "unit": "µM"}, {"measurement": "TGI", "setting": "A549 NSCLC", "result": 31.7, "unit": "µM"}, {"measurement": "GI50", "setting": "OVCAR-5 ovarian", "result": 16.5, "unit": "µM"}, {"measurement": "TGI", "setting": "OVCAR-5 ovarian", "result": 37.3, "unit": "µM"}, {"measurement": "GI50", "setting": "HCT-116 colon", "result": 12.4, "unit": "µM"}, {"measurement": "TGI", "setting": "HCT-116 colon", "result": 25.4, "unit": "µM"}, {"measurement": "GI50", "setting": "SR leukemia", "result": 1.88, "unit": "µM"}, {"measurement": "TGI", "setting": "SR leukemia", "result": 5.32, "unit": "µM"}, {"measurement": "GI50", "setting": "786-0 renal", "result": 13.6, "unit": "µM"}, {"measurement": "TGI", "setting": "786-0 renal", "result": 26.7, "unit": "µM"}, {"measurement": "GI50", "setting": "EKVX NSCLC", "result": 13.8, "unit": "µM"}, {"measurement": "TGI", "setting": "EKVX NSCLC", "result": 27.1, "unit": "µM"}, {"measurement": "GI50", "setting": "MDA-MB-231 breast", "result": 15.9, "unit": "µM"}, {"measurement": "TGI", "setting": "MDA-MB-231 breast", "result": 29.9, "unit": "µM"}, {"measurement": "GI50", "setting": "MDA-MB-468 breast", "result": 11.8, "unit": "µM"}, {"measurement": "TGI", "setting": "MDA-MB-468 breast", "result": 24.1, "unit": "µM"}, {"measurement": "GI50", "setting": "MCF7 breast", "result": 14.7, "unit": "µM"}, {"measurement": "TGI", "setting": "MCF7 breast", "result": 28.2, "unit": "µM"}, {"measurement": "GI50", "setting": "MOLT-4 leukemia", "result": 12.7, "unit": "µM"}, {"measurement": "TGI", "setting": "MOLT-4 leukemia", "result": 25.4, "unit": "µM"}, {"measurement": "GI50", "setting": "UACC-62 melanoma", "result": 9.36, "unit": "µM"}, {"measurement": "TGI", "setting": "UACC-62 melanoma", "result": 21.7, "unit": "µM"}, {"measurement": "GI50", "setting": "KM12 colon", "result": 13.1, "unit": "µM"}, {"measurement": "TGI", "setting": "KM12 colon", "result": 26, "unit": "µM"}, {"measurement": "GI50", "setting": "HT29 colon", "result": 17.6, "unit": "µM"}, {"measurement": "TGI", "setting": "HT29 colon", "result": 31.8, "unit": "µM"}, {"measurement": "GI50", "setting": "SK-MEL-2 melanoma", "result": 14.5, "unit": "µM"}, {"measurement": "TGI", "setting": "SK-MEL-2 melanoma", "result": 27.7, "unit": "µM"}, {"measurement": "GI50", "setting": "U251 glioblastoma", "result": 15.5, "unit": "µM"}, {"measurement": "TGI", "setting": "U251 glioblastoma", "result": 29, "unit": "µM"}, {"measurement": "GI50", "setting": "LOX IMVI melanoma", "result": 14, "unit": "µM"}, {"measurement": "TGI", "setting": "LOX IMVI melanoma", "result": 27.1, "unit": "µM"}, {"measurement": "GI50", "setting": "HOP-92 NSCLC", "result": 12.7, "unit": "µM"}, {"measurement": "TGI", "setting": "HOP-92 NSCLC", "result": 25.3, "unit": "µM"}, {"measurement": "GI50", "setting": "HCC-2998 colon", "result": 13.2, "unit": "µM"}, {"measurement": "TGI", "setting": "HCC-2998 colon", "result": 26.2, "unit": "µM"}, {"measurement": "GI50", "setting": "RXF 393 renal", "result": 12.3, "unit": "µM"}, {"measurement": "TGI", "setting": "RXF 393 renal", "result": 24.8, "unit": "µM"}, {"measurement": "GI50", "setting": "HCT-15 colon", "result": 16.1, "unit": "µM"}, {"measurement": "TGI", "setting": "HCT-15 colon", "result": 30, "unit": "µM"}, {"measurement": "GI50", "setting": "T-47D breast", "result": 13.8, "unit": "µM"}, {"measurement": "TGI", "setting": "T-47D breast", "result": 26.8, "unit": "µM"}, {"measurement": "GI50", "setting": "SW-620 colon", "result": 17.5, "unit": "µM"}, {"measurement": "TGI", "setting": "SW-620 colon", "result": 31.6, "unit": "µM"}, {"measurement": "GI50", "setting": "DU-145 prostate", "result": 15.5, "unit": "µM"}, {"measurement": "TGI", "setting": "DU-145 prostate", "result": 29.3, "unit": "µM"}, {"measurement": "GI50", "setting": "HOP-62 NSCLC", "result": 14.4, "unit": "µM"}, {"measurement": "TGI", "setting": "HOP-62 NSCLC", "result": 27.7, "unit": "µM"}, {"measurement": "GI50", "setting": "UO-31 renal", "result": 10.8, "unit": "µM"}, {"measurement": "TGI", "setting": "UO-31 renal", "result": 23.2, "unit": "µM"}, {"measurement": "GI50", "setting": "A498 renal", "result": 11.8, "unit": "µM"}, {"measurement": "TGI", "setting": "A498 renal", "result": 24.2, "unit": "µM"}, {"measurement": "GI50", "setting": "PC-3 prostate", "result": 14.6, "unit": "µM"}, {"measurement": "TGI", "setting": "PC-3 prostate", "result": 28.4, "unit": "µM"}, {"measurement": "GI50", "setting": "IGROV1 ovarian", "result": 12, "unit": "µM"}, {"measurement": "TGI", "setting": "IGROV1 ovarian", "result": 25.7, "unit": "µM"}, {"measurement": "GI50", "setting": "NCI/ADR-RES ovarian", "result": 17.7, "unit": "µM"}, {"measurement": "TGI", "setting": "NCI/ADR-RES ovarian", "result": 35.9, "unit": "µM"}, {"measurement": "GI50", "setting": "NCI-H23 lung", "result": 14.9, "unit": "µM"}, {"measurement": "TGI", "setting": "NCI-H23 lung", "result": 28.2, "unit": "µM"}, {"measurement": "GI50", "setting": "MDA-MB-435 melanoma", "result": 20.5, "unit": "µM"}, {"measurement": "TGI", "setting": "MDA-MB-435 melanoma", "result": 34.9, "unit": "µM"}, {"measurement": "GI50", "setting": "SK-MEL-5 melanoma", "result": 16.7, "unit": "µM"}, {"measurement": "TGI", "setting": "SK-MEL-5 melanoma", "result": 30.4, "unit": "µM"}, {"measurement": "GI50", "setting": "TK-10 renal", "result": 14.2, "unit": "µM"}, {"measurement": "TGI", "setting": "TK-10 renal", "result": 32.3, "unit": "µM"}, {"measurement": "GI50", "setting": "BT-549 breast", "result": 14.6, "unit": "µM"}, {"measurement": "TGI", "setting": "BT-549 breast", "result": 27.8, "unit": "µM"}, {"measurement": "GI50", "setting": "MALME-3M melanoma", "result": 12.2, "unit": "µM"}, {"measurement": "TGI", "setting": "MALME-3M melanoma", "result": 24.6, "unit": "µM"}, {"measurement": "GI50", "setting": "RPMI-8226 leukemia", "result": 7.71, "unit": "µM"}, {"measurement": "TGI", "setting": "RPMI-8226 leukemia", "result": 20.3, "unit": "µM"}, {"measurement": "GI50", "setting": "K-562 leukemia", "result": 13.9, "unit": "µM"}, {"measurement": "TGI", "setting": "K-562 leukemia", "result": 27.3, "unit": "µM"}, {"measurement": "GI50", "setting": "OVCAR-3 ovarian", "result": 12.7, "unit": "µM"}, {"measurement": "TGI", "setting": "OVCAR-3 ovarian", "result": 25.9, "unit": "µM"}, {"measurement": "GI50", "setting": "SNB-19 CNS", "result": 18.7, "unit": "µM"}, {"measurement": "TGI", "setting": "SNB-19 CNS", "result": 33.9, "unit": "µM"}, {"measurement": "GI50", "setting": "CAKI-1 renal", "result": 4.61, "unit": "µM"}, {"measurement": "TGI", "setting": "CAKI-1 renal", "result": 13.1, "unit": "µM"}, {"measurement": "GI50", "setting": "NCI-H460 NSCLC", "result": 14.5, "unit": "µM"}, {"measurement": "TGI", "setting": "NCI-H460 NSCLC", "result": 28, "unit": "µM"}, {"measurement": "GI50", "setting": "OVCAR-4 ovarian", "result": 15.4, "unit": "µM"}, {"measurement": "TGI", "setting": "OVCAR-4 ovarian", "result": 29.6, "unit": "µM"}, {"measurement": "GI50", "setting": "OVCAR-8 ovarian", "result": 14.2, "unit": "µM"}, {"measurement": "TGI", "setting": "OVCAR-8 ovarian", "result": 27.4, "unit": "µM"}, {"measurement": "GI50", "setting": "ACHN renal", "result": 12.6, "unit": "µM"}, {"measurement": "TGI", "setting": "ACHN renal", "result": 25.7, "unit": "µM"}, {"measurement": "GI50", "setting": "HS 578T breast", "result": 13.4, "unit": "µM"}, {"measurement": "TGI", "setting": "HS 578T breast", "result": 26.3, "unit": "µM"}, {"measurement": "GI50", "setting": "CCRF-CEM leukemia", "result": 13.8, "unit": "µM"}, {"measurement": "TGI", "setting": "CCRF-CEM leukemia", "result": 26.8, "unit": "µM"}, {"measurement": "GI50", "setting": "SN12C renal", "result": 13.7, "unit": "µM"}, {"measurement": "TGI", "setting": "SN12C renal", "result": 26.7, "unit": "µM"}]}
